Test results taken from patent US7521442B2, “Cyclopropyl fused indolobenzazepine HCV NS5B inhibitors” (Bristol-Myers Squibb Company, priority 2006, dated 2009).
Where two headings read alike, the source gives them in different places.

Columns and labels:
[1] = molecular target: T1, HCV NS5B RdRp genotype 1b (Hepatitis C virus genotype 1b, UniProt Q9WMX2); experiment: Modified HCV NS5B RdRp enzyme assay (preincubation protocol); format: biochemical
T1 construct: The protein was expressed with an 18 amino acid C-terminal truncation to enhance the solubility; made in house; host or cells: E. coli BL21(DE3), pET21a
Protocol: HCV NS5B RdRp cloning, expression, and purification. The cDNA encoding the NS5B protein of HCV, genotype 1b, was cloned into the pET21a expression vector. The protein was expressed with an 18 amino acid C-terminal truncation to enhance the solubility. The E. coli competent cell line BL21(DE3) was used for expression of the protein. Cultures were grown at 37° C. for ˜4 hours until the cultures reached an optical density of 2.0 at 600 nm. The cultures were cooled to 20° C. and induced with 1 mM IPTG. Fresh ampicillin was added to a final concentration of 50 μg/ml and the cells were grown overnight at 20° C.
Cell pellets (3 L) were lysed for purification to yield 15-24 mgs of purified NS5B. The lysis buffer consisted of 20 mM Tris-HCl, pH 7.4, 500 mM NaCl, 0.5% triton X-100, 1 mM DTT, 1 mM EDTA, 20% glycerol, 0.5 mg/ml lysozyme, 10 mM MgCl2, 15 μg/ml deoxyribonuclease I, and Complete TM protease inhibitor tablets (Roche). After addition of the lysis buffer, frozen cell pellets were resuspended using a tissue homogenizer. To reduce the viscosity of the sample, aliquots of the lysate were sonicated on ice using a microtip attached to a Branson sonicator. The sonicated lysate was centrifuged at 100,000×g for 1 hr at 4° C. and filtered through a 0.2 μm filter unit (Corning).
The protein was purified using three sequential chromatography steps: Heparin sepharose CL-6B, polyU sepharose 4B, and Hitrap SP sepharose (Pharmacia). The chromatography buffers were identical to the lysis buffer but contained no lysozyme, deoxyribonuclease I, MgCl2 or protease inhibitor and the NaCl concentration of the buffer was adjusted according to the requirements for charging the protein onto the column. Each column was eluted with a NaCl gradient which varied in length from 5-50 column volumes depending on the column type. After the final chromatography step, the resulting purity of the enzyme is >90% based on SDS-PAGE analysis. The enzyme was aliquoted and stored at −80° C.
Standard HCV NS5B RdRp enzyme assay. HCV RdRp genotype 1b assays were run in a final volume of 60 μl in 96 well plates (Costar 3912). The assay buffer is composed of 20 mM Hepes, pH 7.5, 2.5 mM KCl, 2.5 mM MgCl2, 1 mM DTT, 1.6 U RNAse inhibitor (Promega N2515), 0.1 mg/ml BSA (Promega R3961), and 2% glycerol. All compounds were serially diluted (3-fold) in DMSO and diluted further in water such that the final concentration of DMSO in the assay was 2%. HCV RdRp genotype 1b enzyme was used at a final concentration of 28 nM. A polyA template was used at 6 nM, and a biotinylated oligo-dT12 primer was used at 180 nM final concentration. Template was obtained commercially (Amersham 27-4110). Biotinylated primer was prepared by Sigma Genosys. 3H-UTP was used at 0.6 μCi (0.29 μM total UTP). Reactions were initiated by the addition of enzyme, incubated at 30° C. for 60 min, and stopped by adding 25 μl of 50 mM EDTA containing SPA beads (4 μg/μl, Amersham RPNQ 0007). Plates were read on a Packard Top Count NXT after >1 hr incubation at room temperature.
Modified HCV NS5B RdRp enzyme assay. A modified enzyme assay was performed essentially as described for the standard enzyme assay except for the following: The biotinylated oligo dT12 primer was precaptured on streptavidin-coated SPA beads by mixing primer and beads in assay buffer and incubating at room temperature for one hour. Unbound primer was removed after centrifugation. The primer-bound beads were resuspended in 20 mM Hepes buffer, pH 7.5 and used in the assay at final concentrations of 20 nM primer and 0.67 μg/μl beads. Order of addition in the assay: enzyme (14 nM) was added to diluted compound followed by the addition of a mixture of template (0.2 nM), 3H-UTP (0.6 μCi, 0.29 μM), and primer-bound beads, to initiate the reaction; concentrations given are final. Reactions were allowed to proceed for 4 hours at 30° C.
IC50 values for compounds were determined using seven different [I]. […]

[2] = system: HCV replicon cells; experiment: HCV replicon FRET assay; format: cell-based
From the text: FRET Assay Preparation. To perform the HCV FRET screening assay, 96-well cell culture plates were used. The FRET peptide (Anaspec, Inc.) (Taliani et al., Anal. Biochem. 1996, 240, 60-67) contains a fluorescence donor, EDANS, near one end of the peptide and an acceptor, DABCYL, near the other end. The fluorescence of the peptide is quenched by […] resonance energy transfer (RET) between the donor and the acceptor, but as the NS3 protease cleaves the peptide the products are released from RET quenching and the fluorescence of the donor becomes apparent. The assay reagent was made as follows: 5× cell Luciferase cell culture lysis reagent from Promega (#E153A) diluted to 1× with dH2O, NaCl added to 150 mM final, the FRET peptide diluted to 20 uM final from a 2 mM stock.
To prepare plates, HCV replicon cells, with or without a Renilla luciferase reporter gene, were trypsinized and placed into each well of a 96-well plate with titrated test compounds added in columns 3 through 12; columns 1 and 2 contained a control compound (HCV protease inhibitor), and the bottom row contained cells without compound. The plates were then placed in a CO2 incubator at 37° C.
Assays. Subsequent to addition of the test compounds described above (FRET Assay Preparation), at various times the plate was removed and Alamar blue solution (Trek Diagnostics, #00-100) was added per well as a measure of cellular toxicity. After reading in a Cytoflour 4000 instrument (PE Biosystems), plates were rinsed with PBS and then used for FRET assay by the addition of 30 ul of the FRET peptide assay reagent described above (FRET Assay Preparation) per well. The plate was then placed into the Cytoflour 4000 instrument which had been set to 340 excite/490 emission, automatic mode for 20 cycles and the plate read in a kinetic mode. Typically, the signal to noise using an endpoint analysis after the reads was at least three-fold. Alternatively, after Alamar blue reading, plates were rinsed with PBS, 50 ul of DMEM (high glucose) without phenol red was added and plates were then used for luciferase assay using the Promega Dual-Glo Luciferase Assay System.
Compound analysis was determined by quantification of the relative HCV replicon inhibition and the relative cytotoxicity values. To calculate cytoxicity values, the average Alamar Blue fluorescence signals from the control wells were set as 100% non-toxic. The individual signals in each of the compound test wells were then divided by the average control signal and multiplied by 100% to determine […]. To calculate the HCV replicon inhibition values, an average background value was obtained from the two wells containing the highest amount of HCV protease inhibitor at the end of the assay period. These numbers were similar to those obtained from naive Huh-7 cells.
The background numbers were then subtracted from the average signal obtained from the control wells and this number was used as 100% activity. The individual signals in each of the compound test wells were then divided by the averaged control values after background subtraction and multiplied by 100% to determine percent activity. EC50 values for a protease inhibitor titration were calculated as the concentration which caused a 50% reduction in FRET or luciferase activity. The two numbers generated for the compound plate, percent cytoxicity and percent activity were used to determine compounds of interest for further analysis.

T1 sequence (Q9WMX2 2420-2992): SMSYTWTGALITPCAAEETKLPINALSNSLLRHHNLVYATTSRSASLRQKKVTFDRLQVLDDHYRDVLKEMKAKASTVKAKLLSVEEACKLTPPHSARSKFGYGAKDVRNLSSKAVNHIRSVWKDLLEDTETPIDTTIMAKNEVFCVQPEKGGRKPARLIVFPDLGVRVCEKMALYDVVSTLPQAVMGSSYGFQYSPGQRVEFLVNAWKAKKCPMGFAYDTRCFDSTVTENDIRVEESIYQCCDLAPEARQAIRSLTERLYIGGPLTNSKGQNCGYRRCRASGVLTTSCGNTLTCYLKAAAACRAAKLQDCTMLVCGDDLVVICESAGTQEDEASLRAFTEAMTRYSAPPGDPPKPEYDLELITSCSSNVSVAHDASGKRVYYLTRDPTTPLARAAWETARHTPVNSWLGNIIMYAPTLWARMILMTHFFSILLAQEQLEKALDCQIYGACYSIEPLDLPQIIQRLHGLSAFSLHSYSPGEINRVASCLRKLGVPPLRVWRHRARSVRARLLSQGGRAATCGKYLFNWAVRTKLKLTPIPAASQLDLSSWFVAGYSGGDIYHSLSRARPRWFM

Compound	IC50 [1] [nM]	EC50 ([2]; FRET assay) [nM]	EC50 ([2]; Hepatitis C virus) [nM]	EC50 ([2]; Hepatitis C virus, FRET assay, read-out: EC50) [nM]
COc1ccc2c(c1)C1CC1(C(=O)N1CC(O)(C3CC3)C1)Cn1c-2c(C2CCCCC2)c2ccc(C(=O)NS(=O)(=O)N(C)C)cc21 (stereo not shown) [drawing 24]	1 to 500	1 to 500		
COc1ccc2c(c1)C1CC1(C(=O)N1CC(O)C1)Cn1c-2c(C2CCCCC2)c2ccc(C(=O)NS(=O)(=O)C3CC3)cc21 (stereo not shown) [drawing 27]	1 to 500			
COc1ccc2c(c1)C1CC1(C(=O)N1CC(O)(C(F)(F)F)C1)Cn1c-2c(C2CCCCC2)c2ccc(C(=O)NS(=O)(=O)N(C)C)cc21 (stereo not shown) [drawing 23]	1 to 500		1 to 500	
COc1ccc2c(c1)C1CC1(C(=O)N1CC(C)(O)C1)Cn1c-2c(C2CCCCC2)c2ccc(C(=O)NS(=O)(=O)N(C)C)cc21 (stereo not shown)	< 20		1 to 500	
COc1ccc2c(c1)C1CC1(C(=O)N1CC(O)(C3CC3)C1)Cn1c-2c(C2CCCCC2)c2ccc(C(=O)NS(=O)(=O)N(C)C)cc21 (stereo not shown) [drawing 21]	1 to 500		1 to 500	
COc1ccc2c(c1)C1CC1(C(=O)N1CC(O)(C(F)(F)F)C1)Cn1c-2c(C2CCCCC2)c2ccc(C(=O)NS(=O)(=O)N(C)C)cc21 (stereo not shown) [drawing 25]	1 to 500	1 to 500		
COc1ccc2c(c1)C1CC1(C(=O)N1CC(O)(C(C)C)C1)Cn1c-2c(C2CCCCC2)c2ccc(C(=O)NS(=O)(=O)N(C)C)cc21 (stereo not shown)	1 to 500		1 to 500	
COc1ccc2c(c1)C1CC1(C(=O)N1CC(O)C1)Cn1c-2c(C2CCCCC2)c2ccc(C(=O)NS(=O)(=O)N(C)C)cc21 (stereo not shown) [drawing 17]	1 to 500		1 to 500	
COc1ccc2c(c1)C1CC1(C(=O)N1CC(O)C1)Cn1c-2c(C2CCCCC2)c2ccc(C(=O)NS(=O)(=O)C3CC3)cc21 (stereo not shown) [drawing 16]	1 to 500			1 to 500
COc1ccc2c(c1)C1CC1(C(=O)N1CC(O)C1)Cn1c-2c(C2CCCCC2)c2ccc(C(=O)NS(=O)(=O)N(C)C)cc21 (stereo not shown) [drawing 28]	1 to 500			
COc1ccc2c(c1)C1CC1(C(=O)N1CC(O)(c3ccc(F)cc3)C1)Cn1c-2c(C2CCCCC2)c2ccc(C(=O)NS(=O)(=O)N(C)C)cc21 (stereo not shown)	1 to 500		1 to 500	
COc1ccc2c(c1)C1CC1(C(=O)N1CC(O)(c3ccccc3)C1)Cn1c-2c(C2CCCCC2)c2ccc(C(=O)NS(=O)(=O)N(C)C)cc21 (stereo not shown)	1 to 500		1 to 500	
